Like-named read-outs stand apart in the source and are kept apart here.
Key:
[1] = target: T1, hK-RasG12C - hSOS1 interaction (Homo sapiens, UniProt Q07889); assay: Biochemical Assay 1: hK-RasG12C interaction assay with hSOS1 (HTRF); assay type: binding
T1 construct: hSOS1 (amino acid 564-1049); made in house; host or cells: E. coli BL21 (DE3)
T1 sequence (Q07889 with tags, fused parts or gaps): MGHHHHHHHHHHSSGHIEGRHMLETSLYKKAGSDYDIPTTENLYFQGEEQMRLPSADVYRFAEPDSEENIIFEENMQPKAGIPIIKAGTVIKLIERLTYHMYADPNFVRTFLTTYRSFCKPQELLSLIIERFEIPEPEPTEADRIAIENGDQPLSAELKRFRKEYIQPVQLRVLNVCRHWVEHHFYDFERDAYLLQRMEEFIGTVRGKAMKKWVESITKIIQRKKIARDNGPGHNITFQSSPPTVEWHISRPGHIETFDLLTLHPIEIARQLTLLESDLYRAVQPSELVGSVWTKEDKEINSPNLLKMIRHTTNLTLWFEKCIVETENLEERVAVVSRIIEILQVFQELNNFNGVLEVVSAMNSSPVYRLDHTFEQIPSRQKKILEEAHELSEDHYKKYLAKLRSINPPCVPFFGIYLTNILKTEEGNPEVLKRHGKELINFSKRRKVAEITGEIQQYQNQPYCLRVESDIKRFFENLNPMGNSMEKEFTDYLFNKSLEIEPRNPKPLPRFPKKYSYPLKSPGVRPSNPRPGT
Protocol: Biochemical Assay 1: hK-RasG12C Interaction Assay with hSOS1
This assay quantifies the equilibrium interaction of human SOS1 (hSOS1) with human K-Ras^G12C (hK-RasG12C). Detection of the interaction is achieved by measuring homogenous time-resolved fluorescence resonance energy transfer (HTRF) from antiGST-Europium (FRET donor) bound to GST-K-RasG12C to anti-6His-XL665 bound to His-tagged hSOS1 (FRET-acceptor).
The assay buffer contained 5 mM HEPES pH 7.4 (Applichem), 150 mM NaCl (Sigma), 10 mM EDTA (Promega), 1 mM DTT (Thermofisher), 0.05% BSA Fraction V, pH 7.0, (ICN Biomedicals), 0.0025% (v/v) Igepal (Sigma) and 100 mM KF (FLUKA).
Concentrations of protein batches used were optimized to be within the linear range of the HTRF signal. A Ras working solution was prepared in assay buffer containing typically 10 nM GST-hK-RasG12C and 2 nM antiGST-Eu(K) (Cisbio, France). A SOS1 working solution was prepared in assay buffer containing typically 20 nM His-hSOS1 and 10 nM anti-6His-XL665 (Cisbio, France). An inhibitor control solution was prepared in assay buffer containing 10 nM anti-6His-XL665 without hSOS1.
(§1) Fifty nl of a 100-fold concentrated solution of the test compound in DMSO were transferred into a black microtiter test plate (384 or 1536, Greiner Bio-One, Germany) For this, either a Hummingbird liquid handler (Digilab, Mass., USA) or an Echo acoustic system (Labcyte, Calif., USA) was used.
(§2) All steps of the assay were performed at 20° C. A volume of 2.5 μl of the Ras working solution was added to all wells of the test plate using a Multidrop dispenser (Thermo Labsystems). After 2 mM preincubation, 2.5 μl of the SOS1 working solution were added to all wells except for those wells at the side of the test plate that were subsequently filled with 2.5 μl of the inhibitor control solution. After 60 mM incubation the fluorescence was measured with a Pherastar (BMG, Germany) using the HTRF module (excitation 337 nm, emission 1:620 nm, emission 2:665 nm).
(§3) IC50 values were calculated by 4-Parameter fitting using a commercial software package (Genedata Screener, Switzerland).

[2] = target: T2, hSOS1 (hSOS1-mediated nucleotide exchange of hK-RasG12C) (Homo sapiens, UniProt Q07889); assay: Biochemical Assay 2: hK-RasG12C activation assay by hSOS1 at high GTP concentration (HTRF nucleotide exchange); settings: high GTP (50 μM GTP)
T2 construct: hSOS1 (amino acid 564-1049); made in house; host or cells: E. coli BL21 (DE3)
T2 sequence (Q07889 with tags, fused parts or gaps): T1 sequence (Q07889 with tags, fused parts or gaps)
Source text: Biochemical Assay 2: hK-RasG12C Activation Assay by hSOS1 at High GTP Concentration
This assay quantifies human SOS1-mediated nucleotide exchange of human K-Ras^G12C (hK-RasG12C) preloaded with a fluorescent […] and in presence of an excess of free GTP. Loaded hK-RasG12C generates a high HTRF-signal by energy transfer from antiGST-Terbium (FRET donor) bound to hK-Ras to the loaded fluorescent GDP analog (FRET-acceptor). hSOS1 activity exchanges the fluorescent GDP for non-fluorescent GTP and therefore leads to a reduction of the HTRF signal.
The fluorescent GDP-analog EDA-GDP-Dy647P1 (2′/3′-O-(2-Aminoethyl-carbamoyl)-guanosine-5′-diphosphate labelled with Dy647P1 (Dyomics GmbH, Germany)) was synthesized by Jena Biosciences GmbH (Germany) and supplied as a 1 mM aqueous solution.
Concentrations of protein batches used were optimized to be within the linear range of the HTRF signal.
Addition of 20 μl 1 M MgCl2 (Sigma) to final 40 mM and store on ice. Purification into buffer (10 mM HEPES pH 7.4 (Applichem), 150 mM NaCl (Sigma), 5 mM MgCl2 (Sigma)) by use of a PD-Minitrap desalting column (GE Healthcare). Concentration of 1 ml purified hK-Ras-GDP-Dy647 is approx. 4-5 μM.
(§4) The assay buffer contained 10 mM HEPES pH 7.4 (Applichem), 150 mM NaCl (Sigma), 5 mM MgCl2 (Sigma), 1 mM DTT (Thermofisher), 0.05% BSA Fraction V, pH 7.0, (ICN Biomedicals), 0.0025% (v/v) Igepal (Sigma).
A Ras working solution was prepared in assay buffer containing typically 80 nM loaded GST-hK-RasG12C-EDA-GDP-Dy647P1 and 2 nM antiGST-Tb (Cisbio, France).
Alternatively, the inhibitor control solution was prepared by supplementing the hSOS1 working solution with 20 μM of 6,7-dimethoxy-N-[(1R)-1-(1-naphthyl)ethyl]quinazolin-4-amine which was used to calibrate the assay.
as §1
as §2, with “min.” for “mM”, “hSOS1” for “SOS1”, “20 min.” for “60 mM”
as §3

[3] = target: T3, hSOS1 (hSOS1-mediated loading of hK-RasG12C-GDP) (Homo sapiens, UniProt Q07889); assay: Biochemical Assay 3: hK-RasG12C activation assay by hSOS1 (loading with fluorescent GTP analog, HTRF); settings: no GTP
T3 construct: hSOS1 (amino acid 564-1049); made in house; host or cells: E. coli BL21 (DE3)
T3 sequence (Q07889 with tags, fused parts or gaps): T1 sequence (Q07889 with tags, fused parts or gaps)
Source text: Biochemical Assay 3: hK-RasG12C Activation Assay by hSOS1
K-Ras is a small GTPase that can bind GDP and GTP. The guanine nucleotide exchange factor SOS1 catalyzes the activation of K-Ras by promoting the exchange of GDP to GTP. SOS1 binds to K-Ras-GDP thereby opening the GDP-binding pocket to facilitate GDP release. Rebinding of excess nucleotide leads to dissociation of the K-Ras-SOS1 intermediate complex leaving K-Ras loaded with the nucleotide.
This assay quantifies human SOS1-(hSOS1-)mediated loading of human K-Ras^G12C-GDP (hK-RasG12C-GDP) with a fluorescent GTP-analog. Detection of successful loading is achieved by measuring homogenous time-resolved fluorescence resonance energy transfer (HTRF) from antiGST-Terbium (FRET donor) bound to GST-hK-RasG12C (see below) to the loaded fluorescent GTP analog (FRET-acceptor).
The fluorescent GTP-analog EDA-GTP-Dy647P1 (2′/3′-O-(2-Aminoethyl-carbamoyl)-guanosine-5′-triphosphate labelled with Dy647P1 (Dyomics GmbH, Germany)) was synthesized by Jena Biosciences GmbH (Germany) and supplied as a 1 mM aqueous solution.
as §4
Concentrations of protein batches used were optimized to be within the linear range of the HTRF signal. A hRas working solution was prepared in assay buffer containing typically 100 nM GST-hK-RasG12C and 2 nM antiGST-Tb (Cisbio, France). A hSOS1 working solution was prepared in assay buffer containing typically 20 nM hSOS1 and 200 nM EDA-GTP-Dy647P1. An inhibitor control solution was prepared in assay buffer containing 200 nM EDA-GTP-Dy647P1 without hSOS1.
as §1
as §2, with “hRas” for “Ras”, “10 min.” for “2 mM”, “hSOS1” for “SOS1”, “[…]” for “60”, “1: 620” for “1:620”
as §3

| Compound | IC50 ([1]; values expressed as IC50) [nM] | IC50 [2] [nM] | IC50 [3] [nM] | IC50 [1] [nM] |
| --- | --- | --- | --- | --- |
| Cc1nc(NC(C)c2ccc(-c3ccccc3CN(C)C)s2)c2cc(N3CC(NCc4ccccc4)C3)ncc2n1 (centres unmarked) [Example 99, 6-[3-(benzylamino)azetidin-1-yl]-N-[1-(5-{2-[(dimethylamino)methyl]phenyl}thiophen-2-yl)ethyl]-2-methylpyrido[3,4-d]pyrimidin-4-amine] | 53.2 | 58.8 | 82.5 | – |
| Cc1nc(NC(C)c2ccc(-c3ccccc3CN(C)C)s2)c2cc(OCCN(C)C)ncc2n1 (centres unmarked) [Example 66, 6-[2-(dimethylamino)ethoxy]-N-[1-(5-{2-[(dimethylamino)methyl]phenyl}thiophen-2-yl)ethyl]-2-methylpyrido[3,4-d]pyrimidin-4-amine] | 30.4 | 22.7 | – | – |
| CCCOc1cc2c(NC(C)c3ccc(-c4ccccc4CN(C)C)s3)nc(C)nc2cn1 (centres unmarked) [Example 65, N-[1-(5-{2-[(dimethylamino)methyl]phenyl}thiophen-2-yl)ethyl]-2-methyl-6-propoxypyrido[3,4-d]pyrimidin-4-amine] | – | 32.8 | – | – |
| CC(=O)N(c1cccc(C(=O)NC2CN(c3cc4c(NC(C)c5ccc(-c6ccccc6CN(C)C)s5)nc(C)nc4cn3)C2)c1)C1CCN(C(=O)OC(C)(C)C)CC1 (centres unmarked) [Example 98, tert-butyl 4-[acetyl(3-{[1-(4-{[1-(5-{2-[(dimethylamino)methyl]phenyl}thiophen-2-yl)ethyl]amino}-2-methylpyrido[3,4-d]pyrimidin-6-yl)azetidin-3-yl]carbamoyl}-phenyl)amino]piperidine-1-carboxylate] | – | 428 | 620 | 271 |
| Cc1nc(NC(C)c2ccc(-c3ccccc3CN(C)C)s2)c2cc(N3CC(NC(=O)N4CCS(=O)(=O)CC4)C3)ncc2n1 (centres unmarked) [Example 100, N-[1-(4-{[1-(5-{2-[(dimethylamino)methyl]phenyl}thiophen-2-yl)ethyl]amino}-2-methylpyrido[3,4-d]pyrimidin-6-yl)azetidin-3-yl]thiomorpholine-4-carboxamide 1,1-dioxide] | 85.8 | 103 | 156 | – |
| CC(=O)N(c1cccc(C(=O)NC2CN(c3cc4c(NC(C)c5ccc(-c6ccccc6CN(C)C)s5)nc(C)nc4cn3)C2)c1)[C@@H]1CCN(C(=O)OC(C)(C)C)C1 (stereo partly drawn) [Example 97, tert-butyl (3R)-3-[acetyl(3-{[1-(4-{[1-(5-{2-[(dimethylamino)methyl]phenyl}-2-thienyl)-ethyl]amino}-2-methylpyrido[3,4-d]pyrimidin-6-yl)azetidin-3-yl]carbamoyl}-phenyl)amino]pyrrolidine-1-carboxylate] | 293 | 298 | 554 | – |
| Cc1nc(NC(C)c2ccc(-c3ccccc3CN(C)C)s2)c2cc(N3CCNC(=O)C3)ncc2n1 (centres unmarked) [Example 50, 4-(4-{[1-(5-{2-[(dimethylamino)methyl]phenyl}thiophen-2-yl)ethyl]amino}-2-methylpyrido[3,4-d]pyrimidin-6-yl)piperazin-2-one] | – | 48.8 | 54.8 | – |

— patent US20220274979A1 (Bayer Pharma Aktiengesellschaft, priority 2018, published 2022)
